From patent publication EP0644191A1, “PYRIDINE COMPOUND AND MEDICINAL USE THEREOF” (YOSHITOMI PHARMACEUTICAL INDUSTRIES, LTD., priority 1992, dated 1993) come the findings set out here.

For series [1], the system named is Helicobacter pylori. In words: Antibacterial activity (in vitro), agar plate dilution method, clinical isolates (18 strains). The format is cell-based. To be noted: 18 clinical isolates, 37°C, 8% CO₂, 3-4 days. Here is the method:
Antibacterial activity (in vitro) of the compound of the present invention against Helicobacter pylori was determined by the following agar plate dilution method. […] The cultures were diluted with Brucella broth to give a concentration of approximately 10⁶ cell/ml. The diluted bacterial solution was spot inoculated with a microplanter on an agar plate containing 2-fold dilution concentration series of the test compound. The cells were incubated at 37°C under 8% CO₂ for 3-4 days. The minimum inhibitory concentration (MIC) in respective strains was determined, based on which MIC₅₀ and MIC₉₀ were calculated.

In series [2] the test system is Candida albicans IFO 1060. The experiment in a line: Antifungal spectrum, agar plate dilution MIC. The format is cell-based. The conditions noted are these: IFO1060, 37°C, 8% CO₂, 3-4 days.
For series [3], the system named is Pseudomonas aeruginosa IFO 12582. In words: Antibacterial spectrum, agar plate dilution MIC. The format is cell-based. To be noted: IFO12582, 37°C, 8% CO₂, 3-4 days, read-out: MIC P. aeruginosa. Here is the method:
(§1) The test bacterium precultured in Muller-Hinton liquid medium was diluted with the same medium to give a bacterial solution of about 10⁶ cell/ml for inoculation. The dilute bacterial solution was spot inoculated with a microplanter on an agar plate containing 2-fold dilution concentration series of the test compound and the cells were incubated at 37°C under 8% CO₂ for 3-4 days. The minimum inhibitory concentration (MIC) in respective strains was determined, based on which MIC was calculated.

The subject of series [4] is Escherichia coli NIHJ JC-2. In words: Antibacterial spectrum, agar plate dilution MIC. The series is classed as cell-based. To be noted: NIHJJC2, 37°C, 8% CO₂, 3-4 days. Here is the method: as §1
Series [5] concerns Staphylococcus aureus FDA 209P. In words: Antibacterial spectrum, agar plate dilution MIC. The conditions noted are these: FDA209P, 37°C, 8% CO₂, 3-4 days, read-out: MIC S. aureus. The format is cell-based. Here is the method: as §1
The nature of series [6]: Aspirin/hydrochloric acid-induced gastric ulcer in rats. The series is classed as in vivo. The conditions noted are these: for Ulcer index (mean±standard deviation): 30 min before aspirin 100 mg/kg, stomach removed 4 hours later, control 5.0±0.51; for Change (%): change of ulcer index versus control. As to the method:
Male rats weighing about 200 g (16 rats per group) were fasted for 20 hours and the test solution was orally administered to the rats. Thirty minutes later, aspirin (100 mg/kg) containing 0.3N hydrochloric acid was orally administered.
Four hours later, the stomach was removed and the area which developed ulcer was examined. A square root of the total ulcer area was taken as an ulcer index.

A short description of series [7]: Acute toxicity in mice, observed for 5 days. The series is classed as in vivo. The text has this:
As a result, no death case was found.

Converted amounts (≈) assume the structure as drawn.

One may read the MIC50 as an inhibitory concentration at the 50% level, which refers to growth in some studies and to a panel of isolates in others. Lower therefore signals greater potency. What is called MIC90 is an inhibitory concentration at the 90% level, which refers to growth in some studies and to a panel of isolates in others. Low values mean higher susceptibility, high ones lower susceptibility. One may read the MIC as the least concentration at which growth counts as inhibited. Take `Cc1c(SC2CCN(Cc3ccccc3)CC2)ccnc1CSc1nc2ccccc2[nH]1` [Example 7, 2-(4-(1-benzyl-4-piperidyl)thio-3-methyl-2-pyridyl)methylthio-1H-benzimidazole]: the MIC50 in series [1] was determined as 0.012 µg/mL (≈ 0.026 µM). This molecule gave an MIC90 in series [1] of 0.025 µg/mL (≈ 0.0543 µM). Also, the MIC in series [2], in series [3], in series [4] and in series [5] was over 100 µg/mL throughout.

Regarding `Cc1c(SCC[N+]2([O-])CCOCC2)ccnc1CSc1nc2ccccc2[nH]1` [Example 28, 4-(2-((2-(1H-benzimidazol-2-yl)thiomethyl-3-methyl-4-pyridyl)thio)ethyl)morpholine N-oxide], the MIC50 in series [1] was 0.025 µg/mL (≈ 0.06 µM). This molecule gave an MIC90 in series [1] of 0.025 µg/mL (≈ 0.06 µM). Further, the MIC in series [2], in series [3], in series [4] and in series [5] was over 100 µg/mL in each case.

Take `Cc1c(SCCN2CCOCC2)ccnc1CSc1nc2ccccc2[nH]1` [Example 1, 2-(3-methyl-4-(2-morpholinoethylthio)-2-pyridyl)methylthio-1H-benzimidazole]: the figures for the “Ulcer index (mean±standard deviation)” value in series [6] (10 mg/kg p.o.) and in series [6] (30 mg/kg p.o.) were 3.1±0.33 and 2.3±0.49, respectively. Moreover, the “Change (%)” value in series [6] (10 mg/kg p.o.) is on record as -37%; in series [6] (30 mg/kg p.o.), -55%. This molecule also displayed an MIC50 in series [1] of at most 0.006 µg/mL. The same molecule came in with an MIC90 in series [1] of 0.012 µg/mL (≈ 0.03 µM). Besides, the MIC in series [2], in series [3], in series [4] and in series [5] was over 100 µg/mL each time.

`Cc1c(SCCN2CCc3ccccc3C2)ccnc1CSc1nc2ccccc2[nH]1` [Example 2, 2-(3-methyl-4-(2-(1,2,3,4-tetrahydroisoquinolin-2-yl)ethylthio)-2-pyridyl)methylthio-1H-benzimidazole] registered an MIC50 in series [1] of at most 0.006 µg/mL. This molecule also showed an MIC90 in series [1] of at most 0.006 µg/mL. Besides, the MIC in series [2], in series [3], in series [4] and in series [5] was over 100 µg/mL in each case. Also, the death entry in series [7] (intraperitoneally 300 mg/kg) and in series [7] (orally 1000 mg/kg) was “no death case” each time.

As to `Cc1c(SCCN2CCc3ccccc3C2)ccnc1CSc1nc2ncccc2[nH]1` [Example 12, 2-((3-methyl-4-(2-(1,2,3,4-tetrahydroisoquinolin-2-yl)ethylthio)-2-pyridyl)methylthio)imidazo[5,4-b]pyridine], in series [1], the MIC50 was 0.012 µg/mL (≈ 0.0268 µM) and the MIC90 was 0.025 µg/mL (≈ 0.0558 µM).

In series [1], `Cc1c(OCCN2CCc3ccccc3C2)ccnc1C[S+]([O-])c1nc2ccccc2[nH]1` (centres unmarked) [Ref. Compound 3, 2-(3-methyl-4-(2-(1,2,3,4-tetrahydroisoquinolin-2-yl)ethoxy)-2-pyridyl)methylsulfinyl-1H-benzimidazole, reference compound] gave an MIC50 of 0.05 µg/mL (≈ 0.112 µM) and an MIC90 of 0.1 µg/mL (≈ 0.224 µM).

For `Cc1c(OCCN(C)Cc2ccccc2)ccnc1C[S+]([O-])c1nc2ccccc2[nH]1` (centres unmarked) [Ref. Compound 2, 2-(3-methyl-4-(2-(N-benzyl-N-methylamino)ethoxy)-2-pyridyl)methylsulfinyl-1H-benzimidazole, reference compound], in series [1], the MIC50 was 0.1 µg/mL (≈ 0.23 µM) and the MIC90 turned out to be 0.2 µg/mL (≈ 0.46 µM).

On to `Cc1c(SCCN(C)Cc2ccccc2)ccnc1CSc1nc2ccccc2[nH]1` [Example 3], for which the MIC50 in series [1] was determined as 0.025 µg/mL (≈ 0.0575 µM). The molecule also showed an MIC90 in series [1] of 0.05 µg/mL (≈ 0.115 µM). For the same molecule, the minimal inhibitory concentration (MIC) in series [2], in series [3], in series [4] and in series [5] was over 100 µg/mL each time.

In series [1], `Cc1c(OCCN2CCc3ccccc3C2)ccnc1CSc1nc2ccccc2[nH]1` [Ref. Compound 1, 2-(3-methyl-4-(2-(1,2,3,4-tetrahydroisoquinolin-2-yl)ethoxy)-2-pyridyl)methylthio-1H-benzimidazole, reference compound] came in with an MIC50 of 0.05 µg/mL (≈ 0.116 µM) and an MIC90 of 0.1 µg/mL (≈ 0.232 µM).
